Data on one compound can be found in ChEMBL document CHEMBL3886983, “Pyridinyl and pyrimidinyl sulfoxide and sulfone derivatives” (2016).

The pIC50 is the negative decadic logarithm of the IC50, by convention in mol/L.

pIC50: −log10 of the molar value.

The experiment deals with Nicotinamide phosphoribosyltransferase (Homo sapiens, UniProt P43490). The experiment in a line: Biochemical Inhibition Assay: The NAMPT Enzymatic Reaction. The NAMPT enzymatic reactions were carried out in Buffer A (50 mM Hepes pH 7.5, 50 mM NaCl, 5 mM MgCl2, and 1 mM THP) in 96-well V-bottom plates. The compound titrations were performed in a separate dilution plate by serially diluting the compounds in DMSO to make a 100x stock. Buffer A (89 uL) containing 33 nM of NAMPT protein was added to 1 uL of 100x compound plate containing controls (e.g. DMSO or blank). The compound and enzyme mixture was incubated for 15 min at rt, then 10 uL of 10x substrate and co-factors in Buffer A were added to the test well to make a final concentration of 1 uM NAM, […] 5-Phospho-D-ribose 1-diphosphate (PRPP), and 2.5 mM Adenosine 5'-triphosphate (ATP). The reaction was allowed to proceed for 30 min at rt, then was quenched with the addition of 11 uL of a solution of formic acid and L-Cystathionine to make a final concentration of 1% formic acid and 10 uM L-Cystathionine. Background and signal strength was determined by addition (or non-addition) of a serial dilution of NMN to a pre-quenched enzyme and cofactor mix.
Nicotinamide phosphoribosyltransferase, sequence (P43490 whole entry): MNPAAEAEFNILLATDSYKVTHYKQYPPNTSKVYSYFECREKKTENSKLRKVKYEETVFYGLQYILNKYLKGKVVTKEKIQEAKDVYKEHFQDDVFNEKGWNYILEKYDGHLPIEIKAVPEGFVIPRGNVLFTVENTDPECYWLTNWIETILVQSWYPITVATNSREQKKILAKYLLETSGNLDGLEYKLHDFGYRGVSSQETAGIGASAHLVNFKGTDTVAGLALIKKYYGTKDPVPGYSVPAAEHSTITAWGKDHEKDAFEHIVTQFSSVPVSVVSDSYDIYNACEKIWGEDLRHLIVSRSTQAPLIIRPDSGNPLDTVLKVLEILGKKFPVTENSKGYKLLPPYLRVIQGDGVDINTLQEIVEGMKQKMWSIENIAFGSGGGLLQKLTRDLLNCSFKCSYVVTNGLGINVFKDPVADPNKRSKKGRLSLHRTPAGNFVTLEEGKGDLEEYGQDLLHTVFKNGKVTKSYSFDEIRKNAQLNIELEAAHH

On to `CN1CCN(c2ccc(S(=O)(=O)c3ccc(CNC(=O)c4cc5ccncc5o4)nc3)cn2)CC1`, for which the negative-log IC50 (pIC50) was 9.04.
